# Laboratory results taken from paper PMC7799360, “Reprogramming immunosuppressive myeloid cells facilitates immunotherapy for colorectal cancer” (EMBO Molecular Medicine, 2020).
# Tests used:
# ADRA1B = target: T1, ADRA1B (Homo sapiens, UniProt P35368); test: GPCR calcium flux assay; type: cell-based
# T1 construct: Pharmaron (Beijing, China) performed the assay
# ADRA1D = target: T2, ADRA1D (Homo sapiens, UniProt P25100); test: GPCR calcium flux assay; type: cell-based
# T2 construct: Pharmaron (Beijing, China) performed the assay
# AT1 = target: T3, AT1 (Homo sapiens, UniProt P30556); test: GPCR calcium flux assay; type: cell-based
# T3 construct: Pharmaron (Beijing, China), contract laboratory
# AVPR1A = target: T4, AVPR1A (Homo sapiens, UniProt P37288); test: GPCR calcium flux assay; type: cell-based
# T4 construct: Pharmaron (Beijing, China), contract laboratory
# BB1 = target: T5, BB1 (Homo sapiens, UniProt P28336); test: GPCR calcium flux assay; type: cell-based
# T5 construct: Pharmaron (Beijing, China), contract laboratory
# CHRM2 = target: T6, CHRM2 (Homo sapiens, UniProt P08172); test: GPCR calcium flux assay; type: cell-based
# T6 construct: Pharmaron (Beijing, China), contract laboratory
# OPRD1 = target: T7, OPRD1 (Homo sapiens, UniProt P41143); test: GPCR calcium flux assay; type: cell-based
# T7 construct: Pharmaron (Beijing, China), contract laboratory
# OPRK1 = target: T8, OPRK1 (Homo sapiens, UniProt P41145); test: GPCR calcium flux assay; type: cell-based
# T8 construct: Pharmaron (Beijing, China), contract laboratory
# OPRM1 = target: T9, OPRM1 (Homo sapiens, UniProt P35372); test: GPCR calcium flux assay; type: cell-based
# T9 construct: Pharmaron (Beijing, China), contract laboratory
# [1] = In vitro metabolic stability using liver microsome; type: in vitro ADME; conditions: mouse liver microsome
# CT26 tumors = CT26 tumors in BALB/c nude mice; type: in vivo, mouse; conditions: 75 mg/kg
# Experimental: (§1) Syngeneic mouse tumor‐bearing models were established as described previously (Tan et al., 2018). Tumor cells (5 × 10^5 ‐ 2 × 10^6) were suspended in 100 μl PBS and implanted subcutaneously into the flank of mice. Mice were randomized into different treatment groups when tumor volumes reached 100‐200 mm^3. V = L×W^2 × 0.52, where L is the longest diameter, and W is the shortest diameter. Tumor size and body weight were recorded every second or third day. Mouse survival was analyzed using the Kaplan–Meier method.
# (§2) Single agent or combination treatment was designed as follows: TP‐16 (37.5, 75, 150 mg/kg) or celecoxib (100 mg/kg) was formulated in 0.5% carboxymethylcellulose sodium (CMC‐Na, Sangon Biotech, Shanghai, China) and administered via oral gavage daily. In vivo anti‐PD1 antibody (clone RMP1‐14, BioXCell, West Lebanon, NH, USA) and rat IgG2a isotype control (clone 2A3, BioXCell) were diluted in sterile PBS and administered intraperitoneally at a dose of 50 μg twice weekly.
# Pan02 tumors = test: Pan02 pancreatic cancer model in C57BL/6 mice; type: in vivo, mouse; conditions: Pan02, C57BL/6 mice, 75 mg/kg p.o. daily
# Experimental: as §1, §2
# CT26-Luc tumors = test: CT26-Luc orthotopic colorectal cancer mouse model; type: in vivo
# 4T1 = test: Cell viability (MTS); type: cell-based, mouse; conditions: 4T1, 100 µM
# From the text: (§3) The murine colon cancer (CT26), murine breast cancer (4T1), and human colon cancer (HCT116, HCT8, HT29, and DLD1) cell lines were obtained from American Type Culture Collection (ATCC). The murine cell lines of melanoma (B16F10), pancreatic cancer (Pan02), and colon cancer (MC38), Chinese hamster ovary (CHO) cell line, and human embryonic kidney cell lines (HEK293 and HEK293T) were purchased from the National Infrastructure of Cell Line Resource (Shanghai, China). Primary human endothelial cells (HUVECs) were kindly provided by Dr. Xinli Wang (Baylor College of Medicine, Houston, TX, USA) and cultured in endothelial cell medium (ScienCell, San Diego, CA, USA) according to the manufacturer’s instructions. The CHO‐Gα16 cell line was established in our previous study and maintained in DMEM/F12 medium containing puromycin (4 μg/ml) (Wu et al., 2018). Cell lines were maintained in vendor recommended growth medium supplemented with 10% FBS (Gibco, Waltham, MA, USA) and 1% penicillin/streptomycin solution (Gibco) at 37°C ins a humidified atmosphere (5% CO2). All cell lines were authenticated using short tandem repeat analysis. All cell lines were confirmed to be mycoplasma‐free by polymerase chain reaction (PCR) analysis. Cell viability was determined using CellTiter 96 ® Aqueous One Solution (Promega, Madison, WI).
# (§4) Appendix Figure S1. […]. The cytotoxicity curves
# (§5) . Mouse cancer cells: CT26
# (§6) . Human colon cancer cells: HCT116 (E),
# (§7) HCT8 (F), HT29 (G) and DLD1 (H). Human normal cell line: HUVECs (I). Cell
# (§8) viability was measured by MTS. Data are presented as mean ± SEM derived
# (§9) from three independent experiments (n=3).
# (§10) (1 picture or pasted object on this page, not shown here)
# CT26 = test: Cell viability (MTS); type: cell-based, mouse; conditions: CT26, 100 µM
# From the text: as §3, §4, §5, §6, §7, §8, §9, §10
# MC38 = test: Cell viability (MTS); type: cell-based, mouse; conditions: MC38, 100 µM
# From the text: as §3, §4, §5, §6, §7, §8, §9, §10
# Panc02 = test: Cell viability (MTS); type: cell-based, mouse; conditions: Panc02, 100 µM
# From the text: as §3, §4, §5, §6, §7, §8, §9, §10
# AODRA1 = AODRA1 (Homo sapiens, UniProt P30542); test: LANCE Ultra cAMP assay
# ADORA2B = ADORA2B (Homo sapiens, UniProt P29275); test: LANCE Ultra cAMP assay
# CB2 = CB2 (Homo sapiens, UniProt P34972); test: LANCE Ultra cAMP assay
# Sequence of CB2 (P34972 whole entry, species assumed): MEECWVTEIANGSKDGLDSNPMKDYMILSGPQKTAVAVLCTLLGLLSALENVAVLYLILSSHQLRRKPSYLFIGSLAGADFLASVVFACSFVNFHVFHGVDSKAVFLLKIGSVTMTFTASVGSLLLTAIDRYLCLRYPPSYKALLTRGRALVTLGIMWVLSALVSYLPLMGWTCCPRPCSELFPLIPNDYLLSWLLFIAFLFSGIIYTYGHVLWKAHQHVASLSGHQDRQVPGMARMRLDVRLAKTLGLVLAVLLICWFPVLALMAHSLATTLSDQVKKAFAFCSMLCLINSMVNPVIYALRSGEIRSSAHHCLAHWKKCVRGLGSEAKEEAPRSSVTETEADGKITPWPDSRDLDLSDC
# T8 sequence (P41145 whole entry, species assumed): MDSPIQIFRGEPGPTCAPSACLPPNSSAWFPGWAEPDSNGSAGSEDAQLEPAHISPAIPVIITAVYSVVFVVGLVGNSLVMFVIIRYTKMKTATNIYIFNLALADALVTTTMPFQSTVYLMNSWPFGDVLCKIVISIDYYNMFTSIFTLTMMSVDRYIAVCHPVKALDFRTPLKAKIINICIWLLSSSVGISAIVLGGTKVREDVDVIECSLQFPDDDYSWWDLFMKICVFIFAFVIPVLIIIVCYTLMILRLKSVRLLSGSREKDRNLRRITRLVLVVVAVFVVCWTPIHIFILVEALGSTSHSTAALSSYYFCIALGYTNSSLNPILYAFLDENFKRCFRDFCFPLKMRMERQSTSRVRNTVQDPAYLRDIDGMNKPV
# T4 sequence (P37288 whole entry, species assumed): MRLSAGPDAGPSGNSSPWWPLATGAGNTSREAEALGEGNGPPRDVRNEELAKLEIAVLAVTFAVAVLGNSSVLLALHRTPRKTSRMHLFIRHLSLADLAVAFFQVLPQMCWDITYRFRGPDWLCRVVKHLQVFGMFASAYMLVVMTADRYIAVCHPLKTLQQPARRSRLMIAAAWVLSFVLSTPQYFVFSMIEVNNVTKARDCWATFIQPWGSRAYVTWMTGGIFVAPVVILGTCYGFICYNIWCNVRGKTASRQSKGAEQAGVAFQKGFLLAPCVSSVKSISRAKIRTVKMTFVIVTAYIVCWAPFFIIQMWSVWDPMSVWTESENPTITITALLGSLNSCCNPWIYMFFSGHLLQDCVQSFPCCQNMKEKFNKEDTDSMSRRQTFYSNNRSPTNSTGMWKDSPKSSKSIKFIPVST
# Sequence of ADORA2B (P29275 whole entry, species assumed): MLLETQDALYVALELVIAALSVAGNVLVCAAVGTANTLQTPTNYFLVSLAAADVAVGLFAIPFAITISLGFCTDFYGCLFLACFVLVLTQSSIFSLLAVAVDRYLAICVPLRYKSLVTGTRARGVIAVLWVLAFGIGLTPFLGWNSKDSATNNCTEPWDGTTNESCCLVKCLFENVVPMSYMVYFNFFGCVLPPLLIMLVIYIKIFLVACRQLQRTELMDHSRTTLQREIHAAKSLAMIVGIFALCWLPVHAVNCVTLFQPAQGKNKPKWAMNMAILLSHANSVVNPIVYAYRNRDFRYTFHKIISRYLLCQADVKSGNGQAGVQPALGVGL
# T6 sequence (P08172 whole entry, species assumed): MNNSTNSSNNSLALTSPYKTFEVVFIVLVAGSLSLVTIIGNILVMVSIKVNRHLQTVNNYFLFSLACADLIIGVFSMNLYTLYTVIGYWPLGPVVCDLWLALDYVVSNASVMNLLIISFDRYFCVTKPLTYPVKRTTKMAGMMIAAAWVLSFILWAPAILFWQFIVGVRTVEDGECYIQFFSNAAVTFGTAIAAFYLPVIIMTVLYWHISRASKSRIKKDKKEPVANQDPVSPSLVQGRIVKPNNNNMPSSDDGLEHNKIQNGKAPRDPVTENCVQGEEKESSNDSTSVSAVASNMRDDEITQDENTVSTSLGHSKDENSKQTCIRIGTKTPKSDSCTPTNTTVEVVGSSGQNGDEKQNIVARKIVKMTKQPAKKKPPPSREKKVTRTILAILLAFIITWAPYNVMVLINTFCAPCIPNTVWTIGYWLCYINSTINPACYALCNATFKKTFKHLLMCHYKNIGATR
# T2 sequence (P25100 whole entry, species assumed): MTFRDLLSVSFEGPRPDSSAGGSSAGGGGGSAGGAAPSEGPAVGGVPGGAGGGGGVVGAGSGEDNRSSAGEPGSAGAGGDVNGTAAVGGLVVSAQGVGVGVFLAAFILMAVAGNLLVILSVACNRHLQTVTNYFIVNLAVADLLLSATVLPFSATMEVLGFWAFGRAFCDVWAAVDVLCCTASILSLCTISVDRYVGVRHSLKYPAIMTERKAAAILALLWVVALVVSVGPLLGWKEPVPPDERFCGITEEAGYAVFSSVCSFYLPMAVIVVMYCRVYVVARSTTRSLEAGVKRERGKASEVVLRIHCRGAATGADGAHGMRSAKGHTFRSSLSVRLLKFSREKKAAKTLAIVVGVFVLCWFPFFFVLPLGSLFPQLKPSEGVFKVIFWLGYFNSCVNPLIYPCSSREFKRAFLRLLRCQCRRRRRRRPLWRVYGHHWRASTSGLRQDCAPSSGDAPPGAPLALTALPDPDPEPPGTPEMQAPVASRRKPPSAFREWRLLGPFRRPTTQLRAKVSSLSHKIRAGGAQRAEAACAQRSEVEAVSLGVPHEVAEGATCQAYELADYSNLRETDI
# T5 sequence (P28336 whole entry): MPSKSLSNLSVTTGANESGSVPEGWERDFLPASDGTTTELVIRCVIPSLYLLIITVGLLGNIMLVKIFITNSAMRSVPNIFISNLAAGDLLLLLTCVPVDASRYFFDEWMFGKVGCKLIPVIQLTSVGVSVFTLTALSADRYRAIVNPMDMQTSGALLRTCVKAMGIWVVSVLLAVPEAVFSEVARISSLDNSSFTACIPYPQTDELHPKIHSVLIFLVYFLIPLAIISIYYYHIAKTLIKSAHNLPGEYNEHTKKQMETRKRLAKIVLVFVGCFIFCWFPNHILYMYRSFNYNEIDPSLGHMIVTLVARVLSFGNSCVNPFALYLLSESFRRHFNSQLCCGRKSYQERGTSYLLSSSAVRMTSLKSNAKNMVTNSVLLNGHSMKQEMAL
# T3 sequence (P30556 whole entry): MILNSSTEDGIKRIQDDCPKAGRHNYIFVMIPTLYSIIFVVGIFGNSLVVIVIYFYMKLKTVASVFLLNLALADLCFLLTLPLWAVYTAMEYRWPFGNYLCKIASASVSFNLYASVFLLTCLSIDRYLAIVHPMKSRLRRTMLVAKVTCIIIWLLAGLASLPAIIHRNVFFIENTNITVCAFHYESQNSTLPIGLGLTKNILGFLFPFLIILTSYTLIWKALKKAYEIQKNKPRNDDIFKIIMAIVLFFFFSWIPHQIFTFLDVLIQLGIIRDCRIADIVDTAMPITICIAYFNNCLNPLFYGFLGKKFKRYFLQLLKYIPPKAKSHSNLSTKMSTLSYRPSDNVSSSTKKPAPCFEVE
# T7 sequence (P41143 whole entry, species assumed): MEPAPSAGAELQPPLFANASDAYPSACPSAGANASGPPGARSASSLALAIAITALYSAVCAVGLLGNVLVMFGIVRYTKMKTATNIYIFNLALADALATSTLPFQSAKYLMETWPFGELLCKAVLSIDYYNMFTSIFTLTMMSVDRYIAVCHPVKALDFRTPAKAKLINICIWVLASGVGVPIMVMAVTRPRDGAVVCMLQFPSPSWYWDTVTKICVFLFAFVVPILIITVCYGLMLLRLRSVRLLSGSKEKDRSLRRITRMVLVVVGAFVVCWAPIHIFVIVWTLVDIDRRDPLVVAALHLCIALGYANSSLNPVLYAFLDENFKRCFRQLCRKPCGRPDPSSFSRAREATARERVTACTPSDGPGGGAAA
# Sequence of AODRA1 (P30542 whole entry): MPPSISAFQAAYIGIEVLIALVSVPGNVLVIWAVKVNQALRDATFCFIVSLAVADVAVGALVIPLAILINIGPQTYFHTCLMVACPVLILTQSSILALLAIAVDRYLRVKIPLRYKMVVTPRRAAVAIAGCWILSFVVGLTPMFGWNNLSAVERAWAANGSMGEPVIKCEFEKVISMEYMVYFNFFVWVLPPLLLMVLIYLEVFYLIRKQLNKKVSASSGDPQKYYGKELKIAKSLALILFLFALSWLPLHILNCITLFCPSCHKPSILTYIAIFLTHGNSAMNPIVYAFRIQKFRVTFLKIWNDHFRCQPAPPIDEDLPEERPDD
# T9 sequence (P35372 whole entry, species assumed): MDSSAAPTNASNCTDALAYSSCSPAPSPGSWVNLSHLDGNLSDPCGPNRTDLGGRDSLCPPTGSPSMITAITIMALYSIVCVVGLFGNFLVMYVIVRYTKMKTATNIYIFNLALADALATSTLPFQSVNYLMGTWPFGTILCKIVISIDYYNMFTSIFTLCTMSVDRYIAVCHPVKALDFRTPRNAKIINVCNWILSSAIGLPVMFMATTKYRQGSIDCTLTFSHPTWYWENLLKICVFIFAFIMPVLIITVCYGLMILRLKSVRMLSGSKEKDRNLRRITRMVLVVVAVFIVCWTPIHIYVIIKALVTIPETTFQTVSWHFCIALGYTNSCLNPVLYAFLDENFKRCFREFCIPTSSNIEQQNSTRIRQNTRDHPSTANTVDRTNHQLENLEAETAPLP
# T1 sequence (P35368 whole entry, species assumed): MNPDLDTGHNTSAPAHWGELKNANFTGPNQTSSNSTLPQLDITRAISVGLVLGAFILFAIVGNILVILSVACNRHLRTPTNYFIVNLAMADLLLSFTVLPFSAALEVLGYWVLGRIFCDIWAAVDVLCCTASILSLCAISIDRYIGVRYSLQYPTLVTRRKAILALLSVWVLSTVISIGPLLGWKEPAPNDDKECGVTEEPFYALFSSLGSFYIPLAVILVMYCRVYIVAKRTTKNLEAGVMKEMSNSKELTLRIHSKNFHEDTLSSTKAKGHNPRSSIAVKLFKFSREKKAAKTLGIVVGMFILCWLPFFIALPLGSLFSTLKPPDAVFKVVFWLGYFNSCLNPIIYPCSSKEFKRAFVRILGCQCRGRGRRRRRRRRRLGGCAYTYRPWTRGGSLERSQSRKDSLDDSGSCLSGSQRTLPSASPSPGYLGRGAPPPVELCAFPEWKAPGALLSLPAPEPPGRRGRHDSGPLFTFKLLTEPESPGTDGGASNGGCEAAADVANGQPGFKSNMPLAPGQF
smiles,measurement,setting,value
C[C@H](NC(=O)c1c(Cc2ccc(F)cc2)sc2c1CCOC2)c1ccc(C(=O)O)cc1 [TP-16],IC50,ADRA1B,> 10 µM
same,IC50,ADRA1D,> 10 µM
same,IC50,AT1,> 10 µM
same,IC50,AVPR1A,> 10 µM
same,IC50,BB1,> 10 µM
same,IC50,CHRM2,> 10 µM
same,IC50,OPRD1,> 10 µM
same,IC50,OPRK1,> 10 µM
same,IC50,OPRM1,> 10 µM
same,hepatocyte CLint,[1]; liver microsomes,5.91 µL/min/1e6 cells
same,half-life,"[1]; liver microsomes, read-out: In vitro T1/2",3.92 h
same,CLhep predicted,"[1]; liver microsomes, read-out: Predicted hepatic Clint",39.3 mL/min/kg
same,CLint scaled,"[1]; liver microsomes, read-out: Scale-up Clint",69.8 mL/min/kg
same,Remaining Percentages at 120 min,[1],70.6%
same,anti-tumor efficacy in BALB/c nude mice,CT26 tumors,lost
same,%TGI,Pan02 tumors,44.0%
same,%TGI,CT26-Luc tumors; CT26-Luc orthotopic model,76.22%
same,body weight of tumor-bearing mice,CT26-Luc tumors; at the given doses,no significant change
same,effect on cell viability,4T1,did not affect the viability
same,effect on cell viability,CT26,did not affect the viability
same,effect on cell viability,MC38,did not affect the viability
same,effect on cell viability,Panc02,did not affect the viability
same,IC50,AODRA1,> 10 µM
same,IC50,ADORA2B,> 10 µM
same,IC50,CB2,> 10 µM
